Experimental data: ChEMBL document CHEMBL1137612, “Furan based cyclic oligopeptides selectively target G-quadruplex” (J Med Chem, 2007)
The source made the active and inactive calls. The rule behind the calls is not given here.

What was measured:
[1] = Cell cycle arrest in […] cells assessed as accumulation at G1 phase at 300 uM; format: functional, cell-based; details: Homo sapiens
Homo sapiens [2] = species on record: Homo sapiens; experiment: Inhibition of telomerase extension activity at 50 uM by PCR based TRAP assay
[3] = Cytotoxicity against […] cells by MTT assay; format: functional, cell-based; details: Homo sapiens
Homo sapiens [4] = species on record: Homo sapiens; experiment: Stabilization effect on human telomeric DNA assessed as differential melting temperature by DSC assay
[5] = Cell cycle arrest in […] cells assessed as accumulation at G2/M phase at 300 uM; format: functional, cell-based; details: Homo sapiens
[6] = Cell cycle arrest in […] cells assessed as accumulation at S phase at 300 uM; format: functional, cell-based; details: Homo sapiens
[7] = Cell cycle arrest in […] cells assessed as accumulation at Sub G1 phase at 300 uM; format: functional, cell-based; details: Homo sapiens
[8] = Cell cycle arrest in […] cells assessed as accumulation at S phase at 75 uM; format: functional, cell-based; details: Homo sapiens
[9] = Binding affinity to human telomeric DNA
[10] = Cell cycle arrest in […] cells assessed as accumulation at G1 phase at 75 uM; format: functional, cell-based; details: Homo sapiens
[11] = Cell cycle arrest in […] cells assessed as accumulation at Sub G1 phase at 75 uM; format: functional, cell-based; details: Homo sapiens
Homo sapiens [12] = species on record: Homo sapiens; experiment: Stabilization effect on human telomeric DNA assessed as differential melting temperature in the presence of double strand DNA by FRET assay
Homo sapiens [13] = species on record: Homo sapiens; experiment: Stabilization effect on human telomeric DNA assessed as differential melting temperature by FRET assay
[14] = Cell cycle arrest in […] cells assessed as accumulation at G2/M phase at 75 uM; format: functional, cell-based; details: Homo sapiens
[15] = Binding affinity to hairpin DNA; set-up: species or system Homo sapiens

| SMILES | Activity [1] | Activity (Homo sapiens [2]) | IC50 [3] | ΔTm (Homo sapiens [4]) | Activity [5] | Activity [6] | Activity [7] | Activity [8] | Kd [9] | Activity [10] | Activity [11] | ΔTm (Homo sapiens [12]) | ΔTm (Homo sapiens [13]) | Activity [14] | Kd [15] |
| --- | --- | --- | --- | --- | --- | --- | --- | --- | --- | --- | --- | --- | --- | --- | --- |
| NCCC(=O)NCC1=C2CNC(=O)C3=CC=C(CNC(=O)c4cc(CNC(=O)CCN)c(o4)CNC(=O)C4=CC=C(CNC(=O)C(=C1)O2)O4)O3 | 41.4% | Active | 500 µM | 9.2 °C | 4.8% | 4.2% | 48.5% | 7% | 3.1 µM | 31.5% | 46% | 17 °C | 17 °C | 11.5% | – |
| NCCC(=O)NCc1cc2oc1CNC(=O)C1=CC=C(CNC(=O)C3=CC=C(CNC2=O)O3)O1 | – | – | – | 3 °C | – | – | – | – | 21 µM | – | – | 7 °C | 10 °C | – | 700 µM |
| NCC1=C2CNC(=O)C3=CC=C(CNC(=O)c4cc(CN)c(o4)CNC(=O)C4=CC=C(CNC(=O)C(=C1)O2)O4)O3 | 39% | Active | 500 µM | 6.6 °C | 5.5% | 4.8% | 49% | 8.8% | 14.5 µM | 23.5% | 47% | 12 °C | 12 °C | 18.8% | – |
| NCc1cc2oc1CNC(=O)C1=CC=C(CNC(=O)C3=CC=C(CNC2=O)O3)O1 | – | – | – | 2 °C | – | – | – | – | 29 µM | – | – | 7 °C | 9 °C | – | 950 µM |
